Measured values taken from patent US4515766A, “Labeled phosphonic acid compositions for investigations of in vivo deposits of calcium” (priority 1982, dated 1985).

Columns and labels:
Toxic effects in rats = format: in vivo; conditions: 0.32 mg/300 gm
Description: (§1) Relative to a 70 kg person, this represents a safety factor of 74.7 and 112 respectively.

Toxic effects in mice = format: in vivo; conditions: 0.032 mg/20 gm
Description: as §1

Question: For `O=P(O)(O)C(O)(c1ccccc1)P(=O)(O)O` [.PHI.PA], which toxic effects observed (Toxic effects in rats) is on record?
Answer: No toxic effects

Question: What about the safety factor (Toxic effects in rats; rat, in vivo, read-out: safety factor relative to a 70 kg person) of the same molecule?
Answer: 74.7

Question: What about the toxic effects observed (Toxic effects in mice) of the same molecule?
Answer: No toxic effects

Question: What about the safety factor (Toxic effects in mice; mouse, in vivo, read-out: safety factor relative to a 70 kg person) of the same molecule?
Answer: 112
